Patent US20260008770A1, “CBL-B INHIBITORS AND METHODS OF USES THEREOF” (Insilico Medicine IP Limited, priority 2022, published 2026)
Where two headings read alike, the source gives them in different places.

Target: Cbl-b protein (CBL-B, GST-Tag) (Homo sapiens (Human), UniProt Q13191)
Experiment: HTRF based binding assay, affinity to Cbl-b protein
[1] = HTRF binding, CBL-B (GST-Tag), fluorescence labeled Cbl-b binding probe

Sequence of Cbl-b protein (CBL-B, GST-Tag) (Q13191 whole entry): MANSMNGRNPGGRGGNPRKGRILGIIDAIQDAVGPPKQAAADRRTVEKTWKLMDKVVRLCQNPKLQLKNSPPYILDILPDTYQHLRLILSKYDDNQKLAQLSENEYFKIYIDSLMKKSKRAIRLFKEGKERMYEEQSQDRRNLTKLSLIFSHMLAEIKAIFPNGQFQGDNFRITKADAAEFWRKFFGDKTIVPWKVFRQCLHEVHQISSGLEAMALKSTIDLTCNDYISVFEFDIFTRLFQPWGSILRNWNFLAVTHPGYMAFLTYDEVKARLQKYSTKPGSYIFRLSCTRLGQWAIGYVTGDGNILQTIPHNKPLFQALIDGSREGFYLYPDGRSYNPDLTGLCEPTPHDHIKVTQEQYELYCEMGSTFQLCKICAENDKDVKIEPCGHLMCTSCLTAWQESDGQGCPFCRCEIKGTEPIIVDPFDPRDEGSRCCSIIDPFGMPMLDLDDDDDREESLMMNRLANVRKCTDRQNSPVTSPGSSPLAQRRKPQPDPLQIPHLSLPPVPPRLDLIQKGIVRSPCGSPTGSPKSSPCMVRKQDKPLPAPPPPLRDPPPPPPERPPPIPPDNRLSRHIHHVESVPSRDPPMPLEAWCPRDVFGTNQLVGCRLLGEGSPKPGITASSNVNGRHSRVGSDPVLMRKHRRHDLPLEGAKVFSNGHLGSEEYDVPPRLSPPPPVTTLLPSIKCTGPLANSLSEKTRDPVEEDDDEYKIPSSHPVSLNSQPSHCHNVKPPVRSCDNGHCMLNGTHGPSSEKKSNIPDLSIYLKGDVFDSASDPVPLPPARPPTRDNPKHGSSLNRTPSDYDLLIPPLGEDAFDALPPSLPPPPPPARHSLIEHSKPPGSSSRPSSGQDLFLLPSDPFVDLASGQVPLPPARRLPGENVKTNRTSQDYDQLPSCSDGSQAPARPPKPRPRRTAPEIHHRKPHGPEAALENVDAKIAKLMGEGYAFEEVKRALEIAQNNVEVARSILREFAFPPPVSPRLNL

Row | Structure (SMILES) | IC50 [nM] | IC50 [1] [nM]
1 | Cn1cnnc1[C@]1(c2cccc(-n3cc4c(C(F)(F)F)cc(CN5CCOC6(CCC6)C5)cc4n3)c2)C[C@H](C)C1 [Example 40] | 50 to 500 | –
2 | CC1CC(c2cc(C3CC3)nc(-n3cnc4c(C(F)(F)F)cc(CN5CCC[C@H](C)C5)cc4c3=O)c2)(c2nncn2C)C1 (some centres unmarked) [Example 47] | – | < 20
3 | C=Cc1cc([C@]2(c3nncn3C)C[C@@H](C)C2)cc(-n2cnc3ccc(CN4CCC[C@H](C)C4)cc3c2=O)n1 [Example 94] | – | < 20
4 | CC1CC(c2cccc(-c3n[nH]c4c(CN5CCC[C@H](C)C5)cc(C(F)(F)F)nc34)c2)(c2nncn2C)C1 (stereo partly drawn) [Example 5, (S)-3-(3-(3-methyl-1-(4-methyl-4H-1,2,4-triazol-3-yl)cyclobutyl)phenyl)-7-((3-methylpiperidin-1-yl)methyl)-5-(trifluoromethyl)-1H-pyrazolo[4,3-b]pyridine] | 50 to 500 | –
5 | Cc1cc(C2(c3nncn3C)CC(C)C2)cc(-n2cnc3c(C(F)(F)F)cc(CN4CCC[C@H](C)C4)cc3c2=O)n1 (some centres unmarked) [Example 45] | 50 to 500 | –
6 | C[C@H]1CCCN(Cc2cc(C(F)(F)F)c3cnn(-c4cc([C@]5(c6nncn6C)C[C@H](C)C5)ccn4)c(=O)c3c2)C1 [Example 65] | 500 to 1000 | –
7 | CC1=CCCN(Cc2cc(C(F)(F)F)c3cnn(-c4cccc(C5(c6nncn6C)CC(C)C5)c4)c(=O)c3c2)C1 (centres unmarked) [Example 21] | 50 to 500 | –
8 | C[C@H]1CCCN(Cc2cc(C(F)(F)F)c3cnn(-c4cccc([C@H](c5nncn5C)C5CCC5)c4)c(=O)c3c2)C1 [Example 19] | 50 to 500 | –
9 | COc1cc([C@]2(c3nncn3C)C[C@@H](C)C2)cc(-n2cnc3c(C(F)(F)F)cc(CN4CCC[C@H](C)C4)cc3c2=O)n1 [Example 115] | – | < 20
10 | CC1CC(c2cncc(-n3cc4c(C(F)(F)F)cc(CN5CCC[C@H](C)C5)cc4n3)c2)(c2nncn2C)C1 (some centres unmarked) [Example 91] | 20 to 50 | –
11 | Cn1cnnc1[C@]1(c2cc(OCF)nc(-n3cnc4c(C(F)(F)F)cc(CN5CCC[C@H](F)C5)cc4c3=O)c2)C[C@H](C)C1 [Example 102] | – | < 20
12 | CC1CC(c2cccc(-c3nc4cc(CN5CCC[C@H](C)C5)cc(C(F)(F)F)c4s3)c2)(c2nncn2C)C1 (stereo partly drawn) [Example 4, (S)-2-(3-(3-methyl-1-(4-methyl-4H-1,2,4-triazol-3-yl)cyclobutyl)phenyl)-5-((3-methylpiperidin-1-yl)methyl)-7-(trifluoromethyl)benzo[d]thiazole] | – | < 20
13 | CC1CC(c2cccc(-n3cc4c(C(F)(F)F)cc(CN5CCC[C@@](C)(O)C5)cc4n3)c2)(c2nncn2C)C1 (some centres unmarked) [Example 89] | 50 to 500 | –
14 | C[C@H]1CCCN(Cc2cc(C(=O)Nc3cccc([C@]4(c5nncn5C)C[C@H](C)C4)c3)c(F)c(C(F)(F)F)c2)C1 [Example 29] | – | < 20
15 | C[C@H]1CCCN(Cc2cc(C(F)(F)F)c3cn(-c4cccc(C5(c6nncn6C)CC(CC#N)C5)c4)nc3c2)C1 (some centres unmarked) [Example 90] | – | < 20
16 | C[C@H]1CCCN(Cc2cc(C(F)(F)F)c3cn(-c4cc(C5(Cc6nncn6C)COC5)cc5c4OCC5)nc3c2)C1 [Example 75] | – | < 20
17 | C[C@H]1CCCN(Cc2ccc3ncn(-c4cc([C@]5(c6nncn6C)C[C@@H](C)C5)cc(C5CC5)n4)c(=O)c3c2)C1 [Example 96] | – | < 20
18 | C#Cc1cc([C@]2(c3nncn3C)C[C@@H](C)C2)cc(-n2cnc3ccc(CN4CCC[C@H](C)C4)cc3c2=O)n1 [Example 97] | 50 to 500 | –
19 | CC1CC(c2cccc(-c3nc4cc(CN5CCC[C@H](C)C5)cc(C(F)(F)F)c4[nH]3)c2)(c2nncn2C)C1 (some centres unmarked) [Example 17] | 50 to 500 | –
20 | C#C[C@H]1CCCN(Cc2cc(C(F)(F)F)c3cn(-c4cccc([C@]5(c6nncn6C)C[C@@H](C)C5)c4)nc3c2)C1 [Example 56] | – | < 20
21 | C[C@H]1CCCN(Cc2cc(C(F)(F)F)c3cn(-c4cc([C@]5(c6nncn6C)C[C@@H](C)C5)ccn4)nc3c2)C1 (single isomer, unassigned) [Example 58] | 20 to 50 | –
22 | C[C@H]1CCCN(Cc2cc(C(=O)Nc3cccc([C@]4(c5nncn5C)C[C@@H](C)C4)c3)c(F)c(C(F)(F)F)c2)C1 [Example 28] | – | < 20
23 | C[C@H]1CCCN(Cc2cc3c(=O)n(-c4cc([C@]5(c6nncn6C)C[C@@H](C)C5)cc(OCF)n4)cnc3cc2F)C1 [Example 100] | – | < 20
24 | C[C@H]1CCCN(Cc2cc(C(=O)Nc3cccc([C@H](c4nncn4C)C4COC4)c3)cc(C(F)(F)F)c2)C1 [Example 27] | 50 to 500 | –
25 | Cn1cnnc1[C@]1(c2ccnc(-n3ncc4c(C(F)(F)F)cc(CN5CCC6(CC6)C5)cc4c3=O)c2)C[C@H](C)C1 [Example 36] | 20 to 50 | –
26 | CC1CC(c2cccc(-n3ncc4c(C(F)(F)F)cc(CN5CCO[C@H](C)C5)cc4c3=O)c2)(c2nncn2C)C1 (some centres unmarked) [Example 10] | – | > 1000
27 | CC1CC(c2cccc(-n3ccc4c(C(F)(F)F)cc(CN5CCC[C@H](C)C5)cc4c3=O)c2)(c2nncn2C)C1 (some centres unmarked) [Example 23] | – | < 20

Row | Structure (SMILES) | IC50 [nM] | IC50 [1] [nM]
28 | CC1CC(c2cc(C#N)cc(-n3cc4c(C(F)(F)F)cc(CN5CCC[C@H](C)C5)cc4n3)c2)(c2nncn2C)C1 (some centres unmarked) [Example 53] | 50 to 500 | –
29 | C=Cc1cc(C2(c3nncn3C)CC(C)C2)cc(-n2cnc3c(C(F)(F)F)cc(CN4CCC[C@H](C)C4)cc3c2=O)n1 (some centres unmarked) [Example 49] | – | < 20
30 | CC1CC(c2cncc(-n3ncc4c(C(F)(F)F)cc(CN5CCC[C@H](C)C5)cc4c3=O)c2)(c2nncn2C)C1 (some centres unmarked) [Example 54] | 50 to 500 | –
31 | Cn1cnnc1CC1(c2cccc(-n3cc4c(C(F)(F)F)cc(CN5CCC[C@H](C6CC6)C5)cc4n3)c2)COC1 [Example 64] | – | < 20
32 | C[C@H]1CCCN(Cc2cc(C(F)(F)F)c3cnn(-c4cccc(C5(Cc6nncn6C)COC5)c4)c(=O)c3c2)C1 [Example 13] | 500 to 1000 | –
33 | CC1CC(c2cc(OC(F)F)nc(-n3cnc4c(C(F)(F)F)cc(CN5CCC[C@H](C)C5)cc4c3=O)c2)(c2nncn2C)C1 (some centres unmarked) [Example 117] | – | < 20
34 | C[C@H]1CCCN(Cc2cc(C(F)(F)F)c3ncn(-c4cccc(C5(Cc6nncn6C)COC5)c4)c(=O)c3c2)C1 [Example 80, (S)-3-(3-(3-((4-methyl-4H-1,2,4-triazol-3-yl)methyl)oxetan-3-yl)phenyl)-6-((3-methylpiperidin-1-yl)methyl)-8-(trifluoromethyl)quinazolin-4(3H)-one] | 500 to 1000 | –
35 | CC1CC(c2cccc(-n3ncc4c(C(F)(F)F)cc(CN5CCC[C@H](C)C5)cc4c3=O)c2)(c2nncn2C)C1 (some centres unmarked) [Example 6] | 20 to 50 | –
36 | CC1CC(c2cccc(-n3ncc4c(C(F)(F)F)cc(CN5CCC(F)(F)[C@@H](C)C5)cc4c3=O)c2)(c2nncn2C)C1 (some centres unmarked) [Example 15] | – | > 1000
37 | CC1CC(c2ccc(F)c(-n3cc4c(C(F)(F)F)cc(CN5CCC[C@H](C)C5)cc4n3)c2)(c2nncn2C)C1 (some centres unmarked) [Example 72] | 20 to 50 | –
38 | [2H]C([2H])(c1cc(C(F)(F)F)c2ncn(-c3cccc([C@]4(c5nncn5C)C[C@@H](C)C4)c3)c(=O)c2c1)N1CCC[C@H](C)C1 [Example 104] | – | < 20
39 | C[C@@H]1CN(Cc2ccc3ncn(-c4cc([C@]5(c6nncn6C)C[C@@H](C)C5)cc(OCF)n4)c(=O)c3c2)CCC1F (some centres unmarked) [Example 123] | – | < 20
40 | CCc1cc([C@]2(c3nncn3C)C[C@@H](C)C2)cc(-n2cnc3ccc(CN4CCC[C@H](C)C4)cc3c2=O)n1 [Example 93] | 20 to 50 | –
41 | C#CCC1CC(c2cccc(-n3cc4c(C(F)(F)F)cc(CN5CCC[C@H](C)C5)cc4n3)c2)(c2nncn2C)C1 (some centres unmarked) [Example 66] | 20 to 50 | –
42 | C#CC1CC(c2ccnc(-n3cnc4c(C(F)(F)F)cc(CN5CCC[C@H](C)C5)cc4c3=O)c2)(c2nncn2C)C1 (some centres unmarked) [Example 101] | – | < 20
43 | C#CC1CC(c2cccc(-n3cc4c(C(F)(F)F)cc(CN5CCC[C@H](C)C5)cc4n3)c2)(c2nncn2C)C1 (some centres unmarked) [Example 32] | – | < 20
44 | COCC1CC(c2cccc(-n3cc4c(C(F)(F)F)cc(CN5CCC[C@H](C)C5)cc4n3)c2)(c2nncn2C)C1 (some centres unmarked) [Example 33] | 20 to 50 | –
45 | C[C@H]1CCCN(Cc2cc(C(F)(F)F)c3ncn(-c4cc([C@]5(c6nncn6C)C[C@@H](C)C5)ccn4)c(=O)c3c2)C1 [Example 78] | – | < 20
46 | C#C[C@H]1CCCN(Cc2cc(C(F)(F)F)c3ncn(-c4cc([C@]5(c6nncn6C)C[C@@H](C)C5)ccn4)c(=O)c3c2)C1 [Example 61] | 20 to 50 | –
47 | COCC1CC(c2cccc(-n3cnc4c(C(F)(F)F)cc(CN5CCC[C@H](C)C5)cc4c3=O)c2)(c2nncn2C)C1 (some centres unmarked) [Example 76] | 50 to 500 | –
48 | Cn1cnnc1[C@]1(c2cc(OCF)nc(-n3cnc4ccc(CN5CCC[C@H](F)C5)cc4c3=O)c2)C[C@H](C)C1 [Example 98] | 50 to 500 | –
49 | C[C@H]1CCCN(Cc2cc(C(F)(F)F)c3cn(-c4cccc(C5(c6nncn6C)CC(=O)C5)c4)nc3c2)C1 [Example 68] | 50 to 500 | –
50 | C[C@H]1CCCN(Cc2cc(F)c3ncn(-c4cc([C@]5(c6nncn6C)C[C@@H](C)C5)cc(OCF)n4)c(=O)c3c2)C1 [Example 111] | – | < 20
51 | CC1CC(c2cc(F)nc(-n3cnc4c(C(F)(F)F)cc(CN5CCC[C@H](C)C5)cc4c3=O)c2)(c2nncn2C)C1 (some centres unmarked) [Example 44] | 20 to 50 | –
52 | Cn1cnnc1[C@]1(c2cccc(-n3cc4c(C(F)(F)F)cc(CN5CCC[C@H](OC(F)F)C5)cc4n3)c2)C[C@H](C)C1 [Example 74] | 50 to 500 | –
53 | CC1CC(c2cccc(-n3cc(C(F)(F)F)c4ccc(CN5CCC[C@H](C)C5)cc4c3=O)c2)(c2nncn2C)C1 (some centres unmarked) [Example 12] | – | < 20
